Our source for the Ki and Concentration values is ChEMBL document CHEMBL1133371, “Amido-(propyl and allyl)-hydroxybenzamidines: development of achiral inhibitors of factor Xa” (Bioorg Med Chem Lett, 2000).

The structures appear in SMILES notation. pKi: −log10 of the molar value.

For assay [1], the target named is Serine protease 1 (Homo sapiens, UniProt P07477). Kind of assay: In vitro inhibition of trypsin.
Assay [2] concerns the target Prothrombin (Homo sapiens, UniProt P00734). Kind of assay: In vitro inhibition of coagulation factor IIa.
Assay [3] addresses Coagulation factor X (Homo sapiens, UniProt P00742). Kind of assay: In vitro inhibition of coagulation factor Xa.
Assay [4] deals with Vitamin K-dependent protein C (Homo sapiens, UniProt P04070). Kind of assay: Compound was evaluated for the inhibitory activity against Activated protein C.
Vitamin K-dependent protein C, sequence (P04070 43-197 limits assumed): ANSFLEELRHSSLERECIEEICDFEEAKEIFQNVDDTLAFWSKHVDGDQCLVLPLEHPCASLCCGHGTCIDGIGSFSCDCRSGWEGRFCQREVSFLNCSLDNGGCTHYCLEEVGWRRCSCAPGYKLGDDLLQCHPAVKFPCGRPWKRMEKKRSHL
Vitamin K-dependent protein C, sequence (P04070 212-461 limits assumed): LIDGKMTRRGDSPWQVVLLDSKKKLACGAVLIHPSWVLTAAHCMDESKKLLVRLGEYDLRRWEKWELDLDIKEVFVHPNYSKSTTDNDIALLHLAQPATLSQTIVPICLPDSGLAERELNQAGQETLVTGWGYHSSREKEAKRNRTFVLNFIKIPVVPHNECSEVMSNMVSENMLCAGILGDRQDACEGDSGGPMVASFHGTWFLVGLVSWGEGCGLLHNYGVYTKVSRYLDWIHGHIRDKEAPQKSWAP
For assay [5], the target named is Plasminogen (Homo sapiens, UniProt P00747). Kind of assay: Compound was tested for its inhibitory activity against Plasmin.
Plasminogen, sequence (P00747 97-580 limits assumed): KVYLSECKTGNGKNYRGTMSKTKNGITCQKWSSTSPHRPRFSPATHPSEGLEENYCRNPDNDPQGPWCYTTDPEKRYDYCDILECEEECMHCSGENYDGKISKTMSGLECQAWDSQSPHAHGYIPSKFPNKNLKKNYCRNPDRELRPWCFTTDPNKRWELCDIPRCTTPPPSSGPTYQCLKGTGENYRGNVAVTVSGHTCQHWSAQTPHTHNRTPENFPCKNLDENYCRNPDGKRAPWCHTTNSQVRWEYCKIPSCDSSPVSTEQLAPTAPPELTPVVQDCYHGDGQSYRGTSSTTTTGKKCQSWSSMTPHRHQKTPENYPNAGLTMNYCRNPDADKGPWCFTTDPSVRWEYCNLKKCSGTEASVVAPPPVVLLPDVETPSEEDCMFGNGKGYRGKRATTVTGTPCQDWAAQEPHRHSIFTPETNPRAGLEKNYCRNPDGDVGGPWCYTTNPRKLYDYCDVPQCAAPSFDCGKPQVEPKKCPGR
Plasminogen, sequence (P00747 581-810 limits assumed): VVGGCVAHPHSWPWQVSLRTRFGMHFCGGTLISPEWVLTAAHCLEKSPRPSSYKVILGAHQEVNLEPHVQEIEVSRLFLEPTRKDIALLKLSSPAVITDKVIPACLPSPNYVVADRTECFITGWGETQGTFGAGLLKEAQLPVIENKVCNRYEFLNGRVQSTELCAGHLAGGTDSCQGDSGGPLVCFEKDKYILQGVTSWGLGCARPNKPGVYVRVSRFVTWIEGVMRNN
In assay [6] the target is Tissue-type plasminogen activator (Homo sapiens, UniProt P00750). Kind of assay: Compound was tested for its inhibitory activity against tissue plasminogen activator.
Tissue-type plasminogen activator, sequence (P00750 whole entry): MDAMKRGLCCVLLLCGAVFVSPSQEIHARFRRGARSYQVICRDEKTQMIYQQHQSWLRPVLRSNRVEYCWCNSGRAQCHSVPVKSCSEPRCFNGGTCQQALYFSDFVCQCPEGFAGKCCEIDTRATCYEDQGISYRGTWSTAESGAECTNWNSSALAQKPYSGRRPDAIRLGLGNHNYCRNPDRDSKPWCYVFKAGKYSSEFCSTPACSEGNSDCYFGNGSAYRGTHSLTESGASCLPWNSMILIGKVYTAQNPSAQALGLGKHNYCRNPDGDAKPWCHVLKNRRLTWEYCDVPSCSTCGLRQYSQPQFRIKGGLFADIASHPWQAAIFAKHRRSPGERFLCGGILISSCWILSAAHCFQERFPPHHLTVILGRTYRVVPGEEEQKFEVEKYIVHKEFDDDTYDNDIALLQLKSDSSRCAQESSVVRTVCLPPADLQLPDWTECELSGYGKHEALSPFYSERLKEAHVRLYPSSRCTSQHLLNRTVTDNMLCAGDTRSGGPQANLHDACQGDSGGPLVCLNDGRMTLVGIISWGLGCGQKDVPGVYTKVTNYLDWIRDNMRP
The species named for assay [7] is Canis lupus familiaris. Kind of assay: Ability to prolong the activated partial thromboplastin time (APTT) in plasma from dog.
The species entered for assay [8] is Homo sapiens. Kind of assay: Ability to prolong the activated partial thromboplastin time (APTT) in plasma from human. The format is functional, cell-free.
The species named for assay [9] is Rattus norvegicus. Kind of assay: Ability to prolong the activated partial thromboplastin time (APTT) in plasma from rat.
For assay [10], the species on record is Oryctolagus cuniculus. Kind of assay: Ability to prolong the activated partial thromboplastin time (APTT) in plasma from rabbit.

Serine protease 1, sequence (P07477 whole entry): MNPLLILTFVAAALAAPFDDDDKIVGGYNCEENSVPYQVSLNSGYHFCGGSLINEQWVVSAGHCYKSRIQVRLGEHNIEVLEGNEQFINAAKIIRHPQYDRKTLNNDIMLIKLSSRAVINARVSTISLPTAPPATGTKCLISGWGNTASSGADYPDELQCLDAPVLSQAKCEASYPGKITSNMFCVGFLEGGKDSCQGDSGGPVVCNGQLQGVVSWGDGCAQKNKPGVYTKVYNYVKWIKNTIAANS
Coagulation factor X, sequence (P00742 41-179 limits assumed): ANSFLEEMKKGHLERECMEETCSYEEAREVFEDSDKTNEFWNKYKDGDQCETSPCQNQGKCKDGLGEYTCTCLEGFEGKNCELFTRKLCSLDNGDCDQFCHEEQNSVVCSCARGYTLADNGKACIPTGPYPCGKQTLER
Coagulation factor X, sequence (P00742 235-488 limits assumed): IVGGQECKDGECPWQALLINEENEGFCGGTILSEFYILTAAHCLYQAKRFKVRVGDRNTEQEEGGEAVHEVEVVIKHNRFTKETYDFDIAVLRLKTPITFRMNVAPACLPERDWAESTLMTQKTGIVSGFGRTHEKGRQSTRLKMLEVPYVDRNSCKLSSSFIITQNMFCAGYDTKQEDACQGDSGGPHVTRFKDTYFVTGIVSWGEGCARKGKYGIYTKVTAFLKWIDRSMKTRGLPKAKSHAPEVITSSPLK

Usually pKi stands for −log10 of the Ki, conventionally taken in molar units. Lower therefore signals a high Ki. On to `N=C(N)c1ccc(O)c(/C=C/CNC(=O)c2ccc(-c3ccccc3S(N)(=O)=O)cc2)c1`, for which the figures for the pKi in [1], in assay [2] and in [3] were 5.82, less than 5.40 and 8.70, respectively.

With `N=C(N)c1ccc(O)c(/C=C/CNC(=O)c2ccc(-c3ccccn3)s2)c1`, the values for the pKi in assay [1], in [2] and in assay [3] were 5.85, less than 5.40 and 7.43, respectively.

As for `CC(C)(C)c1ccc(C(=O)NCCCc2cc(C(=N)N)ccc2O)cc1`, the pKi in [1] was 5.66; in assay [2], less than 5.40; in assay [3], 7.23.

`N=C(N)c1ccc(O)c(CCCNC(=O)c2ccc(-c3cccnc3)cc2)c1`: the negative-log Ki (pKi) in [1] is 5.72; in assay [2], less than 5.40; in [3] it was 7.42.

Turning to `N=C(N)c1ccc(O)c(CCCNC(=O)c2ccc(-c3c[nH]cn3)cc2)c1`, the pKi was roughly 5.54 in assay [1], less than 5.40 in assay [2] and 6.60 in assay [3].

Turning to `N=C(N)c1ccc(O)c(CCCNC(=O)c2ccc(-c3ccccc3)cc2)c1`, the figures for the pKi in assay [1], in [2] and in [3] were less than 5.54, less than 5.40 and 7.06, respectively.

Take `N=C(N)c1ccc(O)c(/C=C/CNC(=O)c2ccc(-c3ccc(S(N)(=O)=O)cc3)cc2)c1`: the negative logarithm of the Ki (pKi) in assay [1] was 5.80; in [2], less than 5.40; in [3], 7.92.

For the molecule `N=C(N)c1ccc(O)c(/C=C/CNC(=O)c2ccc(-c3ncc[nH]3)cc2)c1`, the pKi in [1] was 5.85; in assay [2] it was less than 5.40; in assay [3], 6.89.

As for `CC(C)(C)c1ccc(C(=O)NC/C=C/c2cc(C(=N)N)ccc2O)cc1`, the negative logarithm of the Ki (pKi) in assay [1] was 5.64; in assay [2], 5.49; in assay [3], 7.21.

Turning to `N=C(N)c1ccc(O)c(CCCNC(=O)c2ccc(-c3ccccn3)s2)c1`, the pKi in assay [1] was less than 5.54; in [2] it was less than 5.40; in [3], 6.88.

Regarding `COC(=O)[C@H](Cc1cccc(C(=N)N)c1)[C@@H](C)NC(=O)c1ccc(-c2cccc(C(N)=O)c2)cc1`, the pKi is 9.30 in assay [3], less than 4.73 in [4], 6.85 in [5] and less than 5.06 in assay [6].

As for `N=C(N)c1ccc(O)c(CCCNC(=O)c2ccc(-c3cccc(C(N)=O)c3)cc2)c1`, the pKi is less than 5.54 in [1]; less than 5.40 in assay [2]; 8.15 in assay [3]; 4.82 in [4]; 5.46 in assay [5]; less than 5.06 in assay [6].

In assay [3], `N=C(N)c1cccc(CCCNC(=O)c2ccc(-c3ccccc3)cc2)c1` showed a negative-log Ki (pKi) of 6.00.

`N=C(N)c1ccc(O)c(CCCNC(=O)c2ccc(-c3ncc[nH]3)cc2)c1`: the negative logarithm of the Ki (pKi) in [1] is roughly 5.54; in assay [2], less than 5.40; in [3], 7.24.

In [3], `COC(=O)[C@H](Cc1cccc(C(=N)N)c1)[C@@H](C)NC(=O)c1ccc(-c2ccccc2)cc1` gave a pKi of 8.30.

As for `N=C(N)c1ccc(O)c(/C=C/CNC(=O)c2ccc(-c3ccnc(C(N)=O)c3)cc2)c1`, the pKi in assay [1] is 5.66; in assay [2] it was less than 5.40; in assay [3], 9.12; in assay [4], roughly 4.73; in assay [5] it was less than 5.14; in [6] it was 5.11. The Concentration in [7] turned out to be 0.99 µM; in assay [8], 0.87 µM; in assay [9], 1.7 µM; in assay [10], 0.51 µM.

On to `N=C(N)c1ccc(O)c(/C=C/CNC(=O)c2ccc(-c3cccc(S(N)(=O)=O)c3)cc2)c1`, for which the values for the negative-log Ki (pKi) in assay [1], in [2] and in [3] were 6.62, less than 5.40 and 8.05, respectively.

As to `N=C(N)c1ccc(O)c(/C=C/CNC(=O)c2ccc(-c3c[nH]cn3)cc2)c1`, the negative-log Ki (pKi) was 5.74 in assay [1], less than 5.40 in [2] and 7.72 in [3].

Turning to `N=C(N)c1ccc(O)c(/C=C/CNC(=O)c2ccc(-c3ccc(C(N)=O)cc3)cc2)c1`, the negative logarithm of the Ki (pKi) in assay [1] is 5.85; in [2] it was 5.54; in [3], 7.70.

`N=C(N)c1ccc(O)c(/C=C/CNC(=O)c2ccc(-c3ccccc3)cc2)c1`: the negative-log Ki (pKi) in assay [1] was less than 5.54; in assay [2], less than 5.40; in assay [3], 7.29.

Turning to `N=C(N)c1ccc(O)c(/C=C/CNC(=O)c2ccc(-c3cccc(C(N)=O)c3)cc2)c1`, the pKi in assay [1] was less than 5.54; in [2], less than 5.40; in [3] it was 8.30.

For `N=C(N)c1ccc(O)c(/C=C/CNC(=O)c2cc3nnc(O)cc3s2)c1`, the negative-log Ki (pKi) in [1] is 5.85; in assay [2] it was less than 5.40; in assay [3], 6.74.

For `N=C(N)c1ccc(O)c(CCCNC(=O)c2cc3ccc(Cl)cc3s2)c1`, the pKi in assay [1] is less than 5.54; in assay [2] it was roughly 5.40; in assay [3], 6.74.
